Measured values taken from ChEMBL document CHEMBL1212849, “The design, synthesis, and evaluation of 8 hybrid DFG-out allosteric kinase inhibitors: a structural analysis of the binding interactions of Gleevec, Nexavar, and BIRB-796” (Bioorg Med Chem, 2010).

How the values were obtained:
[1] = target: Serine/threonine-protein kinase B-raf (Homo sapiens, UniProt P15056)
Description: Inhibition of human recombinant full-length GST-tagged B-Raf by radiometric kinase assay

[2] = target: Tyrosine-protein kinase ABL1 (Mus musculus, UniProt P00520)
Description: Inhibition of mouse recombinant N-terminal His6-tagged Abl by radiometric kinase assay

[3] = target: Mitogen-activated protein kinase 14 (Homo sapiens, UniProt Q16539); experiment: Inhibition of human recombinant full-length N-terminal GST-tagged p38alpha expressed in Escherichia coli by radiometric kinase assay
Sequence of Mitogen-activated protein kinase 14 (Q16539 whole entry): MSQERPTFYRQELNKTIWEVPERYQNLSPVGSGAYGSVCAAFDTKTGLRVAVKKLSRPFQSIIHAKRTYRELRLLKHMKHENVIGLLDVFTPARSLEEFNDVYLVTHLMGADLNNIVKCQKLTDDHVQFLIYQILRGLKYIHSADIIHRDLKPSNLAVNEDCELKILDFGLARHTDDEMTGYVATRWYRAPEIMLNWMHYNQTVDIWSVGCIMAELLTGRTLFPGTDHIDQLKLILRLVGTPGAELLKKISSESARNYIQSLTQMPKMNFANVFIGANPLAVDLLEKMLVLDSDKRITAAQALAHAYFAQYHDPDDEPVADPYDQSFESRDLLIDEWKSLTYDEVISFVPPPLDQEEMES

Sequence of Tyrosine-protein kinase ABL1 (P00520 whole entry): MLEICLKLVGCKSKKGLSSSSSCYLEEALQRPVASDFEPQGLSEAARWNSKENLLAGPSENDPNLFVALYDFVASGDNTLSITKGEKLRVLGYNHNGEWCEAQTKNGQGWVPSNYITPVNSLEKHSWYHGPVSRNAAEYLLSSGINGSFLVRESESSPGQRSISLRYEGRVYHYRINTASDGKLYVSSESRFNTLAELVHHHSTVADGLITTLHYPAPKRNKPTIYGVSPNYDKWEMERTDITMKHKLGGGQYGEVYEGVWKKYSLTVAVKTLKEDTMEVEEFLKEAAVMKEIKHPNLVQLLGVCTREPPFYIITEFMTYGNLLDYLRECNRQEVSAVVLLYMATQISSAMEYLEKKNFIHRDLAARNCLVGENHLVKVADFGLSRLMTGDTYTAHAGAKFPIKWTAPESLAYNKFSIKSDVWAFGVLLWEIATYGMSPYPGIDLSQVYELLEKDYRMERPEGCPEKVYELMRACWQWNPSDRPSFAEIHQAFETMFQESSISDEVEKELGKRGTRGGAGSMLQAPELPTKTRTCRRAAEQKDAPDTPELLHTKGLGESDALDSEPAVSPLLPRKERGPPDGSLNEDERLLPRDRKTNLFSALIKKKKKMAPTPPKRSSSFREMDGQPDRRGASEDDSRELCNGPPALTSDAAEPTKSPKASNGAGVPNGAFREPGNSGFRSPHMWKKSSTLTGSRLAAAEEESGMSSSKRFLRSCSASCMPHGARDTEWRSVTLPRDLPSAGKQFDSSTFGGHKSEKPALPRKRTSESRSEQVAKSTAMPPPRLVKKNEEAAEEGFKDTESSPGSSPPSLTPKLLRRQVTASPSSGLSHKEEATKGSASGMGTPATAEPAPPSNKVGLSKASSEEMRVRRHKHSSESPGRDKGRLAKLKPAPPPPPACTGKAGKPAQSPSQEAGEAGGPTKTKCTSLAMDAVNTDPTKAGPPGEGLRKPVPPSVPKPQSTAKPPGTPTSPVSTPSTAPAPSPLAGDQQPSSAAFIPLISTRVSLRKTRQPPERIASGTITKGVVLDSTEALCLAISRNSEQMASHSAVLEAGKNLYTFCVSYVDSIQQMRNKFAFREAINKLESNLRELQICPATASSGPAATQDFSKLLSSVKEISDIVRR
Sequence of Serine/threonine-protein kinase B-raf (P15056 whole entry): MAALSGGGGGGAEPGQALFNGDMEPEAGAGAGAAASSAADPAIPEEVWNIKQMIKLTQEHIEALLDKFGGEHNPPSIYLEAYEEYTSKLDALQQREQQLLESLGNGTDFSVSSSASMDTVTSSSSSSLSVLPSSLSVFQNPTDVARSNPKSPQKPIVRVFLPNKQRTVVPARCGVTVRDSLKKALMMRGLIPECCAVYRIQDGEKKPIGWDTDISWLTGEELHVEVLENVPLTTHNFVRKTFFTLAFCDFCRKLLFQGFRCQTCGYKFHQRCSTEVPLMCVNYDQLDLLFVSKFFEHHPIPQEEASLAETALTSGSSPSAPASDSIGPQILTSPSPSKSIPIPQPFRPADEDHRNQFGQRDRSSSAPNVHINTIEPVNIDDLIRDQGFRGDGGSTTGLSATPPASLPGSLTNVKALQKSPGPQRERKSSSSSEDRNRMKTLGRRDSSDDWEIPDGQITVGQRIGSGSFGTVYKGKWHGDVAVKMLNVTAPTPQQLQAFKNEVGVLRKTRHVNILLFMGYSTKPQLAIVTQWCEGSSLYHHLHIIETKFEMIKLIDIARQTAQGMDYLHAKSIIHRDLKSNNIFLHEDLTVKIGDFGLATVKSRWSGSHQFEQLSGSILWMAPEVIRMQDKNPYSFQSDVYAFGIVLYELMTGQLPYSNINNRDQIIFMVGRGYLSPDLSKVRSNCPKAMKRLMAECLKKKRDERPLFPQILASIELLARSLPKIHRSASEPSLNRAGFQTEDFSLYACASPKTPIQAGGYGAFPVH

Row | SMILES | IC50 [1] [nM] | IC50 [2] [nM] | IC50 [3] [nM]
1 | CNC(=O)c1cc(Oc2ccc(NC(=O)c3ccc(CN4CCN(C)CC4)cc3)cc2)ccn1 | > 100000 | > 30000 | > 100000
2 | CN1CCN(Cc2ccc(C(=O)Nc3ccc(OCCN4CCOCC4)c4ccccc34)cc2)CC1 | > 100000 | > 30000 | > 100000
3 | Cc1ccc(NC(=O)Nc2ccc(Cl)c(C(F)(F)F)c2)cc1Nc1nccc(-c2cccnc2)n1 | 180 | < 1 | 18.4
4 | O=C(Nc1ccc(Cl)c(C(F)(F)F)c1)Nc1ccc(OCCN2CCOCC2)c2ccccc12 | < 1 | 12900 | 
5 | Cc1ccc(-n2nc(C(C)(C)C)cc2NC(=O)Nc2ccc(C)c(Nc3nccc(-c4cccnc4)n3)c2)cc1 | 414 | 8.6 | 189
6 | CNC(=O)c1cc(Oc2ccc(NC(=O)Nc3cc(C(C)(C)C)nn3-c3ccc(C)cc3)cc2)ccn1 | 237 | 62.6 | 
7 | CNC(=O)c1cc(Oc2ccc(NC(=O)Nc3ccc(CN4CCN(C)CC4)cc3)cc2)ccn1 | > 100000 | 572 | > 100000
8 | O=C(Nc1ccc(OCCN2CCOCC2)cc1)Nc1ccc(Cl)c(C(F)(F)F)c1 | 92.3 | 244 | 105
